# Measurements: paper PMC7278359, “Small molecule AX-024 reduces T cell proliferation independently of CD3ϵ/Nck1 interaction, which is governed by a domain swap in the Nck1-SH3.1 domain” (The Journal of Biological Chemistry, 2020)
# Entries after “also recorded” stand apart in the source; their conditions may differ.
# Columns and labels:
# [1] = biological target: T1, Nck1-SH3.1 (Homo sapiens, UniProt P16333); assay: SPR binding to immobilized Nck1-SH3.1; details: AX-024 up to 100 μM; 1260 RU; 20 °C, pH 7.8
# T1 construct: His10-Avi-TEV-Nck1-SH3.1 (residues 1–61, MM 11,847 Da) was biotinylated and immobilized via streptavidin; made in house; host or cells: Escherichia coli BL21 (DE3)
# Procedure: SPR experiments were conducted on a T200 Biacore instrument (GE Healthcare, Uppsala, Sweden) at 20 °C in 10 mM HEPES/NaOH, pH 7.8, 150 mM NaCl, 1 mM TCEP. […] Streptavidin is immobilized on the CAP sensor by way of double-strand DNA formation. A ssDNA is covalently coupled to the sensor surface, and a complementary DNA strand, covalently linked to streptavidin, is hybridized. To regenerate the surface, the DNA duplex is dissociated by washing with high-ionic strength solution. […] The reference channel for binding studies contained the same streptavidin-coated surface blocked with biotin.
# Five replicates were performed for each CD3ϵ concentration (Table S1), whereas for the qualitative assessment of the APVA variant, only a single titration was performed.
# SPR equilibrium signals were corrected for the signal in the reference channel and buffer contributions. The resulting SPR amplitudes were plotted as a function of peptide concentration, and a simple binding equation describing a Langmuir adsorption isotherm was fit to the data (GraphPad Prism) to extract the equilibrium dissociation constant Kd. (Eq. 1) RU=RUmax·[peptide]/[peptide]+Kd
# [2] = test system: P-Zap70 in primary T cells; assay: Zap70 phosphorylation in primary T cells, flow cytometry; type: cell-based, human
# Procedure: Figure 4. […] Healthy donor PBMCs were isolated rested overnight and pretreated with 20 μM AX-024 or vehicle prior to stimulation with 20 μg·ml^−1 (A) or 10 μg·ml^−1 (B) anti-CD3. The cells were gated on live cells, CD3, and CD4 for assessment of P-Zap70. Error bars, S.D.
# Human PBMCs from healthy donors were prepared from 50 ml of fresh blood with Ficoll in Leucosep tubes. The tubes were centrifuged at room temperature (30 min, 800 × g) without brake. Isolated cells were washed and staved overnight. The cells were treated with AX-024 or vehicle and incubated for 1 h at 37 °C followed by further incubation on ice. 10, 25, or 50 μg·ml^−1 anti-CD3-biotin (clone OKT3, BioLegend) was added to the cells on ice for 15 min before neutravidin was added at a final concentration of 20 μg·ml^−1 for cross-linking. After stimulation for 3 min at 37 °C, cells were fixed (BD Cytofix fixation buffer) and permeabilized (TruePhos buffer, BioLegend). Staining was performed with CD3-PerCP (clone SK7, BD), CD4-BUV395 (clone SK3, BD), CD8-BV605 (clone RPAT8, BioLegend), and Zap70-PE (clone 65E4, CST). Flow cytometry and data analysis were done as described above.
# [3] = test system: monomeric Nck1-SH3.1; assay: Ligand-observed NMR with monomeric Nck1-SH3.1; type: binding, human; details: 50 μM ligand, 10 μM monomeric Nck1-SH3.1 (residues 1–61), pH 6.5, 150 mM NaCl, 27 °C
# Procedure: NMR spectra were recorded on a Bruker 600-MHz Avance NEO spectrometer equipped with a cryogenic QCI probe head at 27 °C in 25 mM […], 150 mM NaCl. The Topspin 4.0 software (Bruker, Fällanden) was used for spectrometer operation and data processing. For ^1H ligand-observed measurements, a relaxation filtered pulse sequence utilizing a spinlock of 50 ms was applied. 1D spectra were acquired with 128 scans, a sweep width of 26 ppm, and an acquisition time of 2 s. 2D ^1H-^15N HSQC spectra with natural ^15N isotope abundance were recorded over 72 h with a spectral width of 16 ppm and 35 ppm in the proton and nitrogen dimensions, respectively, with 256 increments (complex) and 1000 scans per increment. A relaxation delay of 1 s was used between scans. For the DOSY measurements (reviewed in Ref. [51]), the Bruker pulse sequence ledbpgp2s with a diffusion delay of 50 ms and a gradient length of 600 μs was used. The gradient strength was varied from 5 to 95% to record 16 increments of 512 scans with a sweep width of 18 ppm and a relaxation delay of 1 s.
# Samples for ligand-observed measurements were prepared in 25 mM sodium phosphate buffer, pH 6.5, 150 mM NaCl. One sample contained 50 μM AX-024, and the other contained 50 μM CD3ϵ peptide.
# [4] = test system: 5-HT2B; assay: Selectivity panel (Eurofins, CEREP); type: binding; details: 10 μM AX-024, single point; human receptor; radioactive antagonist ligand
# Procedure: (§1) AX-024 was submitted to a selectivity panel comprising 50 recurring off-targets, including G protein–coupled receptors, channels, transporters, and metabolic enzymes (Eurofins, CEREP).
# (§2) Supplemental Table 1: SPR peptide titrations
# (§3) Single point measurements at 10 μM for 50 targets in a selectivity panel.
# (§4) human receptors, except for the Ca2+ channel, which is from rat. A radioactive antagonist ligand was used
# (§5) for the detection. The tests were conducted by Euro fins (https://www.eurofinsdiscoveryservices.com ).
# [5] = test system: Ca2+ channel (CaV1.2) (L, diltiazem site); assay: Selectivity panel (Eurofins, CEREP); type: binding; details: probe radioactive antagonist ligand, 10 μM AX-024, single point, rat Ca2+ channel
# Procedure: as §1, §2, §3, §4, §5
# [6] = test system: Dopamine D1; assay: Selectivity panel (Eurofins, CEREP); type: binding; details: 10 μM AX-024, single point; human receptor; radioactive antagonist ligand
# Procedure: as §1, §2, §3, §4, §5
# [7] = test system: Histamine H3; assay: Selectivity panel (Eurofins, CEREP); type: binding; details: 10 μM AX-024, single point; human receptor; radioactive antagonist ligand
# Procedure: as §1, §2, §3, §4, §5
# [8] = test system: Muscarinic M1; assay: Selectivity panel (Eurofins, CEREP); type: binding; details: 10 μM AX-024, single point; human receptor; radioactive antagonist ligand
# Procedure: as §1, §2, §3, §4, §5
# [9] = test system: Muscarinic M2; assay: Selectivity panel (Eurofins, CEREP); type: binding; details: 10 μM AX-024, single point; human receptor; radioactive antagonist ligand
# Procedure: as §1, §2, §3, §4, §5
# [10] = test system: α 1A adrenoreceptor; assay: Selectivity panel (Eurofins, CEREP); type: binding; details: 10 μM AX-024, single point; human receptor; radioactive antagonist ligand
# Procedure: as §1, §2, §3, §4, §5
# [11] = test system: Zap70 phosphorylation in anti-CD3–stimulated T cells; details: ref [10]; cited from earlier work
# Procedure: It was shown previously that Nck contributes to TCR signaling after weak stimulation of T cells. […] To obtain a strong dependence of TCR signaling on Nck, different stimulation conditions with low concentrations of anti-CD3 in the absence of co-stimulatory signals were assessed in the presence of AX-024 (Fig. 4). […] At the outset of this study, further development of AX-024, published as a PPI of the Nck1/CD3ϵ interaction ([10]), was anticipated. Unfortunately, we could not replicate all biological effects attributed to this compound. […] Whereas there is an inhibitory effect of AX-024 on T cell proli ...
smiles,measurement,setting,value
"COc1ccc2c(c1)C(c1ccc(F)cc1)=C(CN1CCCC1)CO2.Cl [AX-024, 1-((4-(4-fluorophenyl)-6-methoxy-2H-chromen-3-yl)methyl)pyrrolidine hydrochloride]",direct binding to immobilized Nck1-SH3.1 by SPR,[1],does not bind to Nck1-SH3.1; also recorded: no direct binding of AX-024 to immobilized Nck1-SH3.1 was detectable
same,reduction of Zap70 phosphorylation,"[2]; PBMCs from healthy donors, 20 μM AX-024 pretreatment, 20 or 10 μg·ml^−1 anti-CD3, gated on live, CD3, CD4",does not significantly reduce Zap70 phosphorylation
same,reduction of Zap70 phosphorylation,"[2]; different stimulation conditions, low anti-CD3, no co-stimulation",none of the conditions tested resulted in significant reduction of Zap70 phosphorylation
same,"ligand-observed NMR, spectral change / line broadening",[3],no binding of AX-024 was detected by NMR; also recorded: do not show any spectral changes
same,% inhibition,[4],80.1%
same,inhibition at 10 μM,[5],66.3%
same,% inhibition,[6],85.3%
same,% inhibition,[7],95.1%
same,% inhibition,[8],95.0%
same,% inhibition,[9],81.3%
same,% inhibition,[10],79.3%
same,reduction of Zap70 phosphorylation,[11],reduces Zap70 phosphorylation to the same level as in unstimulated T cells; also recorded: reduces ZAP70 phosphorylation in anti-CD3–stimulated T cells to levels comparable with unstimulated T cells
